“Also recorded” adds a separate entry of the source. Where two headings read alike, the source gives them in different places.
Columns and labels:
[1] = test system: SH-SY5Y human neuroblastoma cells; test: Neuroprotection against Aβ1-42-induced toxicity, MTT; type: cell-based; conditions: Aβ1-42 2.5 μM 24 h; 1 h pre-incubation; compounds 1, 2 100 µM; 4 10 µM; 5 20 µM
Description: (§1) SH-SY5Y human neuroblastoma cells (ATCC-CRL-2266) were seeded in DMEM/F12 (Dulbecco’s Modified Eagle Medium/Ham’s F-12 Nutrient Mixture; Thermo Fisher Scientific) with 10% heat inactivated fetal bovine serum, 50 U/mL penicillin and 50 U/mL streptomycin under a humidified atmosphere with 95% relative humidity at 37 °C at a 0.16 × 10^6 cells/mL density. Stock solutions from tested compounds (1, 2, 4 and 5) were prepared in DMSO at a 25 mM concentration and stored at −20 °C until needed. In order to select the highest non-toxic concentration, a dose-response screening was performed, where SH-SY5Y cells were exposed to the compounds for 25 h. The selected concentrations for each compound were: 75 µM final concentration for 1 and 2; 10 µM final concentration for 4 and 20 µM final concentration for 5. […] For the neuroprotection assays, the selected compounds were added to the cell media 1 hour prior to the incubation with Aβ1-42 or L-ascorbic acid/ferrous sulphate. Aβ1-42 or L-ascorbic acid/ferrous sulphate treatment was maintained for another 24 h. Aβ1-42 was prepared as 276.9 µM stock in sterile water and administrated in the medium at a 2.5 µM final concentration. Ferrous sulphate was freshly prepared as 0.36 M stock in water and added to the medium at 2.5 mM final concentration. L-ascorbic acid was freshly prepared as 80 mM stock in water and added to the medium at 5 mM final concentration. Aβ1-42 was purchased from Bachem (Torrance, CA, USA) and ferrous sulphate and L-ascorbic acid from Sigma Chemical Co (St. Louis, MO, USA).
(§2) Cell viability was measured by using the MTT (3-(4,5-dimethylthiazol-2-yl)-2,5-diphenyl tetrazolium bromide) reduction assay. This test is based on the presence of succinate dehydrogenase enzyme in viable cells, that allows them to metabolize MTT into a formazan. After treatment, the medium was removed, and cells were washed with 1x PBS one time to remove dead cells. 200 µL of MTT solution (0.5 mg/mL) was added to each well and incubated for 2 h protected from light. Formazan precipitates were then dissolved in DMSO and absorbance measured at 570 nm. The ability to reduce MTT was expressed as a percentage of untreated control cells.
Overnight cultures were treated with Aβ1-42 peptide (2.5 μM) for 24 h in the absence or in the presence of the compounds. When compounds were present, a pre-incubation of 1 h preceded the Aβ1-42 treatment. Cellular viability was determined by employing the MTT reduction assay. […] (compounds: 1, 2–100 µM; 4–10 µM; 5–20 µM).

Aβ1-42 [2] = target: T1, Aβ1-42 (Homo sapiens, UniProt P05067); test: biochemical; conditions: for Inhib. Aβ Aggreg. Self-Induced: 40 µM; for inhibition at 40 µM: read-out: Inhib. Aβ Aggreg. Self-Induced
T1 construct: Amyloid β peptide (Aβ1-42) was purchased from GeneCust as a lyophilised powder; purchased GeneCust
T1 sequence (P05067 672-713 limits assumed): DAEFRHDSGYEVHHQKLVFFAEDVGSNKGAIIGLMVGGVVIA
Description: The anti-amyloidogenic activity of all the compounds was also evaluated in vitro, in the absence and in presence of Cu(II), by measuring the fluorescence emission of Thioflavin T (ThT).
The spectrofluorimetric method, based on the fluorescence emission of thioflavin T (ThT), was used to study the Aβ1-42 aggregation inhibition. Firstly, Aβ1-42 was dissolved in HFIP (1,1,1,3,3,3-Hexafluoro-2-propanol) and kept overnight at room temperature in order to obtain a dry film. […] The ligand solutions were prepared with MeOH (1mg/mL) and further with phosphate buffer. […] As a control, a solution of 30 μL of phosphate buffer and 30 μL of Aβ1-42 was used to observe the aggregation without any inhibition, while the ligand assay solutions were composed of 20 μL of phosphate buffer, 30 μL of Aβ1-42 and 10 μL of ligand. The Cu-induced aggregation studies were similarly conducted, adding 10 μL of CuCl2 to induce the fibril aggregation. Each experiment was composed of an assay and a blank sample, where the blank sample lacks Aβ1-42, to monitor the effect of the compounds on the fluorescence emission. The samples were left to incubate in a CERTOMAT WR water bath for 24 h at 37 °C with shaking. After 24 h, a Glycine-NaOH buffer (pH = 8.5) containing ThT were added to each sample in a microplate. The fluorescence signal was monitored at 446 nm (λexc) and 486 nm (λem) with a Varian Cary Eclipse fluorimeter. Amyloid β peptide (Aβ1-42) was purchased from GeneCust as a lyophilised powder and stored at −20 °C [12, 13, 14].

[3] = target: AChE of electroforus electricus (electric eel) (Electrophorus electricus, UniProt O42275); test: biochemical; conditions: mean of three independent experiments ± SEM
AChE of electroforus electricus (electric eel), sequence (O42275 24-633): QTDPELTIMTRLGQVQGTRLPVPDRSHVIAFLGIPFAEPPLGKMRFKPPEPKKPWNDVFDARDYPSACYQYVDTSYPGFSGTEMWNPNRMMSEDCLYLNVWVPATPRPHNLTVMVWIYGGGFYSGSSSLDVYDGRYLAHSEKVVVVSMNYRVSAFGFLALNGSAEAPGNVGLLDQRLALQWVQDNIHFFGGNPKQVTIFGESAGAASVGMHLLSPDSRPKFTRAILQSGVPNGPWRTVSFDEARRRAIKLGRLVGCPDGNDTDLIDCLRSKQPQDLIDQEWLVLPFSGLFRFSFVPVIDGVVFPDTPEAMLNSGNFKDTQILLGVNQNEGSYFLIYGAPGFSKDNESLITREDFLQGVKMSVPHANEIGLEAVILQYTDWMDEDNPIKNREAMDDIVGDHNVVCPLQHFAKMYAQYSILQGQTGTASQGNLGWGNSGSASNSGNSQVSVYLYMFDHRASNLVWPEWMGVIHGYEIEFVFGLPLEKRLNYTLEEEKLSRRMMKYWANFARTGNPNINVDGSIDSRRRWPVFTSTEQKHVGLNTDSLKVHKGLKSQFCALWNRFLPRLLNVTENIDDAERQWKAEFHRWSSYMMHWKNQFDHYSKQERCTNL
Description: All new racemic compounds were tested as acetylcholinesterase inhibitors via an in vitro assay, following a modification of Ellman’s method in three independent experiments, using tacrine as a reference compound. […] Enzyme inhibition assays were performed using an adaptation of Ellman’s method. The readings were made in a spectrophotometer Perkin-Elmer Lambda 35 UV-Vis. Enzyme activity is measured by following the increase in yellow color produced from thiocholine when it reacts with dithiobisnitrobenzoate ion (DTNB). DTNB solution was obtained dissolving the reagent in HEPES buffer with salts, namely NaCl (50 mM) and MgCl2 (20 mM), obtaining a 3 mM solution. The enzyme AChE of electroforus electricus (electric eel) stock (500 U) was dissolved in TRIS 50 mM, pH 8.0, being posteriorly diluted to assay concentrations (5 U), obtaining an aliquot of 1 mL. The enzyme substrate used was acetylthiocholine iodide (AThCh, 16 mM), which was prepared with deionized water. The compounds tested were diluted in MeOH or DMSO (1 mg/mL, 2–7 × 10^−3 M), with further dilution, and five different concentrations were used for each compound, obtaining different percentages of AChE inhibition. The assay consists in the addition of HEPES (50 mM, pH = 8), inhibitor, AChE and MeOH in a 1 mL cuvette. The mixture was left to incubate for 15 min and, after that, AThCh and DTNB were added. The enzymatic reaction was followed through the measurements of absorbencies at 405 nm (Perkin Elmer Lambda 35 spectrophotometer equipped with a temperature programmer PTP 1þ1 Peltier System, using thermostated (T = 25.0 ± 0.1 °C) 1 cm path length cells) during 5 min. A blank solution containing all the components except the enzyme, that was substituted for equal volume of HEPES, was used. A control reaction was used using MeOH instead of the new compounds and was considered the reaction corresponding to 100% enzymatic activity. Each assay was performed in quintupled.

[4] = test system: SH-SY5Y human neuroblastoma cells; test: Dose-response cell viability screening, MTT reduction assay; type: cell-based; conditions: for highest non-toxic concentration (selected concentration): SH-SY5Y cells exposed for 25 h
Description: as §1, §2
Figure 10 Dose-response screening of compounds 1, 2, 4 and 5 on SH-SY5Y neuronal cell line. Overnight cultures were treated with a range of concentrations from 10 μM to 100 μM for 24 h and cellular viability was determined by employing the MTT reduction assay.

[5] = Radical scavenging activity, DPPH method; conditions: DPPH assay; mean ± SEM of 3 independent experiments
Description: Therefore, they were assayed for radical scavenging activity using the DPPH method.
The final volume of the assay was 3.5 mL, corrected with MeOH to obtain different concentrations of our compound in each assay. The control solution was composed of MeOH and DPPH [14]. After 30 min, at RT, protected from light, the absorbance was measured at 517 nm (Perkin Elmer Lambda 35 spectrophotometer equipped with a temperature programmer PTP 1þ1 Peltier System, using thermostated (T¼25.0 ± 0.1 °C) 1 cm path length cells), against a blank solution (MeOH). The assays were performed in triplicate, in which the EC50 was obtained through the graphical representation of the %AA vs. the inhibitor concentration.

Aβ1-42 [6] = target: T1, Aβ1-42; test: Inhibition of Cu2+-induced Aβ1-42 aggregation, thioflavin T fluorescence; type: biochemical; conditions: inhibitor 40 µM, copper 40 µM
Description: The anti-amyloidogenic activity of all the compounds was also evaluated in vitro, in the absence and in presence of Cu(II), by measuring the fluorescence emission of Thioflavin T (ThT). […] The Aβ self-aggregation inhibitory activity shown by all compounds is higher than that of parent compound TA, with the exception of compound 2 (probably due to solubility issues at the experimental conditions of the assays). The fact that the reference value previously reported by us for TA (50 ± 8%) was obtained for quite different conditions, including a much higher inhibitor concentration (100 μM instead of 40 μM) is noteworthy. […] This may be due to different electronic contributions between the ketone and the ester functions. Therefore, the ester derivatives seem to be better chelators compared to TA.
The spectrofluorimetric method, based on the fluorescence emission of thioflavin T (ThT), was used to study the Aβ1-42 aggregation inhibition. Firstly, Aβ1-42 was dissolved in HFIP (1,1,1,3,3,3-Hexafluoro-2-propanol) and kept overnight at room temperature in order to obtain a dry film. Then, the film was re-dissolved in CH3CN-Na2CO3 (300μM)/NaOH (250μM) (48.3/48.3/3.4 mL v/v/v) and then phosphate buffer (pH = 8) was added. The ligand solutions were prepared with MeOH (1mg/mL) and further with phosphate buffer. For the inhibition studies of copper-induced Aβ aggregation, a solution of CuCl2 240 μM was used. As a control, a solution of 30 μL of phosphate buffer and 30 μL of Aβ1-42 was used to observe the aggregation without any inhibition, while the ligand assay solutions were composed of 20 μL of phosphate buffer, 30 μL of Aβ1-42 and 10 μL of ligand. The Cu-induced aggregation studies were similarly conducted, adding 10 μL of CuCl2 to induce the fibril aggregation. Each experiment was composed of an assay and a blank sample, where the blank sample lacks Aβ1-42, to monitor the effect of the compounds on the fluorescence emission. The samples were left to incubate in a CERTOMAT WR water bath for 24 h at 37 °C with shaking. After 24 h, a Glycine-NaOH buffer (pH = 8.5) containing ThT were added to each sample in a microplate. The fluorescence signal was monitored at 446 nm (λexc) and 486 nm (λem) with a Varian Cary Eclipse fluorimeter. Amyloid β peptide (Aβ1-42) was purchased from GeneCust as a lyophilised powder and stored at −20 °C [12, 13, 14].

[7] = set-up: method as in PMID 30158491; conditions: DPPH assay; cited from earlier work
[8] = set-up: method as in literature; conditions: value reported in the literature; ref literature; cited from earlier work
Aβ1-42 [9] = target: T1, Aβ1-42; set-up: method as in PMID 30158491; conditions: Cinhibitor = 100 µM; cited from earlier work
[10] = test system: SH-SY5Y human neuroblastoma cells; test: Neuroprotection against ferrous sulfate/L-ascorbic acid insult, MTT; type: cell-based; conditions: Fe/Asc 24 h; 1 h pre-incubation; compound 5 20 µM
Description: SH-SY5Y human neuroblastoma cells (ATCC-CRL-2266) were seeded in DMEM/F12 (Dulbecco’s Modified Eagle Medium/Ham’s F-12 Nutrient Mixture; Thermo Fisher Scientific) with 10% heat inactivated fetal bovine serum, 50 U/mL penicillin and 50 U/mL streptomycin under a humidified atmosphere with 95% relative humidity at 37 °C at a 0.16 × 10^6 cells/mL density. Stock solutions from tested compounds (1, 2, 4 and 5) were prepared in DMSO at a 25 mM concentration and stored at −20 °C until needed. In order to select the highest non-toxic concentration, a dose-response screening was performed, where SH-SY5Y cells were exposed to the compounds for 25 h. The selected concentrations for each compound were: 75 µM final concentration for 1 and 2; 10 µM final concentration for 4 and 20 µM final concentration for 5. […]
Cell viability was measured by using the MTT (3-(4,5-dimethylthiazol-2-yl)-2,5-diphenyl tetrazolium bromide) reduction assay. […] Formazan precipitates were then dissolved in DMSO and absorbance measured at 570 nm. The ability to reduce MTT was expressed as a percentage of untreated control cells.
Figure 12 Neuroprotective effect of compounds after Ferrous Sulfate (Fe)/L-Ascorbic Acid (AscH(-)) insult. […] Cellular viability was determined by employing the MTT reduction assay. […]

[11] = Aβ1-42, inhibitor 40 µM, SEM < 10%
[12] = AChE from electric eel, read-out: eeAChEi IC50

Compound | protection against Aβ1-42-induced toxicity [1] | Inhib. Aβ Aggreg. Self-Induced (Aβ1-42 [2]; [11]) [%] | inhibition at 40 µM (Aβ1-42 [2]; [11]) [%] | IC50 [3, 12] [µM] | highest non-toxic concentration (selected concentration) [4] [µM] | Antioxidant Activity EC50 [5] | other results
O=C1C=C(NCCN2CCN(Cc3ccccc3)CC2)C(Cc2ccccc2)N1 (stereo not shown) [Compound 4, 5-Benzyl-4-((2-(4-benzylpiperazin-1-yl)ethyl)amino)-1,5-di-hydro-2H-pyrrol-2-one] | do not confer protection | 72.0 | 72 to 78.4 | 16 ± 2 | 10 | >30 µmol/µmol of DPPH | 
CC[C@H](C)[C@@H]1NC(=O)C(C(C)=O)=C1O (stereo in doubt) [Tenuazonic acid] |  |  | 25.2 |  |  |  | Inhib. Aβ Aggreg. Cu2+-Induced (Aβ1-42 [6]): did not demonstrate a significant difference of effect; IC50 ([3]; eeAChEi IC50, AChE from electric eel): 65 ± 4 µM; Antioxidant Activity EC50 [7]: - 2.6 ± 0.2 [19] µmol/µmol of DPPH; log K (protonation constant) [8]: 3.523; Inhib. Aβ Aggreg. Self-Induced (Aβ1-42 [9]): 50 ± 8%
CC(C)C1NC(=O)C=C1NCCN1CCN(Cc2ccccc2)CC1 (stereo not shown) [Compound 5, 4-((2-(4-Benzylpiperazin-1-yl)ethyl)amino)-5-isopropyl-1,5-dihydro-2H-pyrrol-2-one] | do not confer protection; also recorded: not able to directly protect SH-SY5Y cells from Aβ1-42-induced cell toxicity | 78.4 | 72 to 78.4 | 24 ± 3 | 20 | >30 µmol/µmol of DPPH | cytotoxicity on SH-SY5Y cell line ([4]; 10 μM to 100 μM, 24 h, at the active concentrations): non-cytotoxic; also recorded: do not show (except for compound 4) cytotoxicity; neuroprotection against Fe/Asc challenge [10]: conferred neuroprotection against the Fe/Asc challenge
CCOC(=O)C1=C(O)C(C)NC1=O (stereo not shown) [Compound 3, Ethyl 4-hydroxy-5-methyl-2-oxo-2,5-dihydro-1H-pyrrole-3-carboxylate] |  |  | 57.4 | 44 ± 4 |  | >30 µmol/µmol of DPPH | inhibition at 40 µM (Aβ1-42 [6]; read-out: Inhib. Aβ Aggreg. Cu2+-Induced): 63.8%
Nc1c2c(nc3ccccc13)CCCC2 [Tacrine, reference compound] |  |  |  |  |  |  | inhibition at 40 µM (Aβ1-42 [2]): 31.2%

From publication PMC7830597, “Derivatives of Tenuazonic Acid as Potential New Multi-Target Anti-Alzheimer’s Disease Agents” (Biomolecules, 2021)
